Reference: patent US12480137B2, “Plants having increased tolerance to herbicides” (BASF SE, priority 2014, dated 2025)

Legend:
Assay type in all cases: in vivo, Arabidopsis thaliana
[1] = tested on: Cesa1_G1013R, fpx2-1 mutant line; experiment: Greenhouse phytotox, pre-emergent treatment
How it was run: (§1)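 Greenhouse tests on M2 or M3 Arabidopsis plants for tolerance to cellulose biosynthesis-inhibiting herbicides, e.g. pentafluorophenyl-, tetrafluorophenyl- or chloro-trifluoropyridyl-substituted 1,3,5-triazine-2,4-diamines. Treatment given pre-emergence or post-emergence 6 weeks after sowing.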

[2] = tested on: Cesa1_G1009D, fpx2-3 mutant line; experiment: Greenhouse phytotox, pre-emergent treatment
How it was run: as §1

[3] = tested on: Cesa3_S1037F, fpx1-2 mutant line; experiment: Greenhouse phytotox, pre-emergent treatment
How it was run: (§2)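 Tolerance to cellulose biosynthesis inhibitors is assessed on M2 or M3 generation Arabidopsis grown in a greenhouse. Example inhibitors are fluorinated N4-aryl triazine-2,4-diamines, including N4-(4-bromo-2,3,5,6-tetrafluoro-phenyl)-6-(1-fluoro-1-methyl-ethyl)-1,3,5-triazine-2,4-diamine.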

[4] = tested on: Cesa3_S983F, fpx1-3 mutant line; experiment: Greenhouse phytotox, pre-emergent treatment
How it was run: as §2

[5] = tested on: Cesa1_P1010L, fpx2-2 mutant line; experiment: Greenhouse phytotox, pre-emergent treatment
How it was run: as §1

[6] = tested on: Cesa3_S1040L, fpx1-1 mutant line; experiment: Greenhouse phytotox, pre-emergent treatment
How it was run: as §2

[7] = tested on: A. thaliana WT L. erecta; experiment: Greenhouse phytotox, pre-emergent treatment
How it was run: as §2

[8] = tested on: Cesa1_G1013R, fpx2-1 mutant line; experiment: Greenhouse phytotox, post-emergent treatment 6 weeks after sowing
Procedure: (§3) Additionally, M2 or M3 Arabidopsis plants are tested for improved tolerance to cellulose biosynthesis-inhibiting herbicides in greenhouse studies (e. g. with the following cellulose biosynthesis-inhibiting herbicides: 6-cyclopentyl-N4-(2,3,4,5,6-pentafluorophenyl)-1,3,5-triazine-2,4-diamine; 6-(1-fluoro-1-methyl-ethyl)-N4-(2,3,4,5,6-pentafluorophenyl)-1,3,5-triazine-2,4-diamine; N4-(4-chloro-3,5,6-trifluoro-2-pyridyl)-6-(1-fluoro-1-methyl-ethyl)-1,3,5-triazine-2,4-diamine; 6-(2,6-difluorophenyl)-N4-(2,3,5,6-tetrafluorophenyl)-1,3,5-triazine-2,4-diamine; N4-(4-bromo-2,3,5,6-tetrafluoro-phenyl)-6-(1-fluoro-1-methyl-ethyl)-1,3,5-triazine-2,4-diamine.

[9] = tested on: Cesa1_G1009D, fpx2-3 mutant line; experiment: as above
Procedure: as §3

[10] = tested on: Cesa3_S1037F, fpx1-2 mutant line; experiment: as above
Procedure: as §3

[11] = tested on: Cesa3_S983F, fpx1-3 mutant line; experiment: as above
Procedure: as §3

[12] = tested on: Cesa1_P1010L, fpx2-2 mutant line; experiment: as above
Procedure: as §3

[13] = tested on: Cesa3_S1040L, fpx1-1 mutant line; experiment: as above
Procedure: as §3

[14] = tested on: A. thaliana WT L. erecta; experiment: as above
Procedure: as §3

With Nc1nc(Nc2c(F)c(F)c(F)c(F)c2F)nc(C2CCCC2)n1 [6-cyclopentyl-N4-(2,3,4,5,6-pentafluorophenyl)-1,3,5-triazine-2,4-diamine] the “Phytotox value on a scale from 0-100 (100 is 100% damage)” value (“Phytotox value … (100 is 100% damage)” below) ([1]; 0.25 g ai/ha) was 5, the “Phytotox value … (100 is 100% damage)” value ([1]; 0.98 g ai/ha) was 15 and the “Phytotox value … (100 is 100% damage)” value ([1]; 3.91 g ai/ha) was 25. For the same compound, the “Phytotox value … (100 is 100% damage)” value ([1]; 15.63 g ai/ha) was 15, the “Phytotox value … (100 is 100% damage)” value ([2]; 0.25 g ai/ha) was 5 and the “Phytotox value … (100 is 100% damage)” value ([2]; 0.98 g ai/ha) was 25. The “Phytotox value … (100 is 100% damage)” value ([2]; 3.91 g ai/ha) was 58, the “Phytotox value … (100 is 100% damage)” value ([2]; 15.63 g ai/ha) was 88 and the “Phytotox value … (100 is 100% damage)” value ([3]; 0.25 g ai/ha) was 0. For the same compound, the “Phytotox value … (100 is 100% damage)” value ([3]; 0.98 g ai/ha) was 23, the “Phytotox value … (100 is 100% damage)” value ([3]; 3.91 g ai/ha) was 15 and the “Phytotox value … (100 is 100% damage)” value ([3]; 15.63 g ai/ha) was 5. The “Phytotox value … (100 is 100% damage)” value ([4]; 0.25 g ai/ha) was 0, the “Phytotox value … (100 is 100% damage)” value ([4]; 0.98 g ai/ha) was 5 and the “Phytotox value … (100 is 100% damage)” value ([4]; 3.91 g ai/ha) was 20. The “Phytotox value … (100 is 100% damage)” value ([4]; 15.63 g ai/ha) was 40, the “Phytotox value … (100 is 100% damage)” value ([5]; 0.25 g ai/ha) was 0 and the “Phytotox value … (100 is 100% damage)” value ([5]; 0.98 g ai/ha) was 33. The “Phytotox value … (100 is 100% damage)” value ([5]; 3.91 g ai/ha) was 63, the “Phytotox value … (100 is 100% damage)” value ([5]; 15.63 g ai/ha) was 98 and the “Phytotox value … (100 is 100% damage)” value ([6]; 0.25 g ai/ha) was 5. The “Phytotox value … (100 is 100% damage)” value ([6]; 0.98 g ai/ha) was 20, the “Phytotox value … (100 is 100% damage)” value ([6]; 3.91 g ai/ha) was 25 and the “Phytotox value … (100 is 100% damage)” value ([6]; 15.63 g ai/ha) was 40. The “Phytotox value … (100 is 100% damage)” value ([7]; 0.25 g ai/ha) was 38, the “Phytotox value … (100 is 100% damage)” value ([7]; 0.98 g ai/ha) was 80 and the “Phytotox value … (100 is 100% damage)” value ([7]; 3.91 g ai/ha) was 99. The “Phytotox value … (100 is 100% damage)” value ([7]; 15.63 g ai/ha) was 100, the “Phytotox value … (100 is 100% damage)” value ([8]; 7.88 g ai/ha) was 38 and the “Phytotox value … (100 is 100% damage)” value ([8]; 15.75 g ai/ha) was 55. The “Phytotox value … (100 is 100% damage)” value ([8]; 31.5 g ai/ha) was 65, the “Phytotox value … (100 is 100% damage)” value ([8]; 63 g ai/ha) was 80 and the “Phytotox value … (100 is 100% damage)” value ([9]; 7.88 g ai/ha) was 45. The “Phytotox value … (100 is 100% damage)” value ([9]; 15.75 g ai/ha) was 63, the “Phytotox value … (100 is 100% damage)” value ([9]; 31.5 g ai/ha) was 73 and the “Phytotox value … (100 is 100% damage)” value ([9]; 63 g ai/ha) was 75. For the same compound, the “Phytotox value … (100 is 100% damage)” value ([10]; 7.88 g ai/ha) was 55, the “Phytotox value … (100 is 100% damage)” value ([10]; 15.75 g ai/ha) was 58 and the “Phytotox value … (100 is 100% damage)” value ([10]; 31.5 g ai/ha) was 70. For the same compound, the “Phytotox value … (100 is 100% damage)” value ([10]; 63 g ai/ha) was 78, the “Phytotox value … (100 is 100% damage)” value ([11]; 7.88 g ai/ha) was 25 and the “Phytotox value … (100 is 100% damage)” value ([11]; 15.75 g ai/ha) was 65. For the same compound, the “Phytotox value … (100 is 100% damage)” value ([11]; 31.5 g ai/ha) was 55, the “Phytotox value … (100 is 100% damage)” value ([11]; 63 g ai/ha) was 73 and the “Phytotox value … (100 is 100% damage)” value ([12]; 7.88 g ai/ha) was 63. The “Phytotox value … (100 is 100% damage)” value ([12]; 15.75 g ai/ha) was 70, the “Phytotox value … (100 is 100% damage)” value ([12]; 31.5 g ai/ha) was 78 and the “Phytotox value … (100 is 100% damage)” value ([12]; 63 g ai/ha) was 93. The “Phytotox value … (100 is 100% damage)” value ([13]; 7.88 g ai/ha) was 0, the “Phytotox value … (100 is 100% damage)” value ([13]; 15.75 g ai/ha) was 5 and the “Phytotox value … (100 is 100% damage)” value ([13]; 31.5 g ai/ha) was 35. The “Phytotox value … (100 is 100% damage)” value ([13]; 63 g ai/ha) was 68, the “Phytotox value … (100 is 100% damage)” value ([14]; 7.88 g ai/ha) was 68 and the “Phytotox value … (100 is 100% damage)” value ([14]; 15.75 g ai/ha) was 80. The “Phytotox value … (100 is 100% damage)” value ([14]; 31.5 g ai/ha) was 78 and the “Phytotox value … (100 is 100% damage)” value ([14]; 63 g ai/ha) was 98.
